The kinase profiling compilation of Christmann-Franck et al. (2016)
Each block holds one molecule with its values, some of them ahead of it.

How the values were obtained:
Test in all cases: Caliper, Mobility shift assay off-chip
[1] = molecular target: GSK3A (human) (UniProt P49840)
[2] = molecular target: CDC42BPB (human) (UniProt Q9Y5S2)
[3] = molecular target: DCLK2 (human) (UniProt Q8N568)
[4] = system: PDGFRA (human), P16234 [V561D]
[5] = molecular target: AURKA (human) (UniProt O14965)
[6] = molecular target: MAPK9 (human) (UniProt P45984)
[7] = molecular target: FRK (human) (UniProt P42685)
Chain of FRK (human) (P42685 whole entry, looked up): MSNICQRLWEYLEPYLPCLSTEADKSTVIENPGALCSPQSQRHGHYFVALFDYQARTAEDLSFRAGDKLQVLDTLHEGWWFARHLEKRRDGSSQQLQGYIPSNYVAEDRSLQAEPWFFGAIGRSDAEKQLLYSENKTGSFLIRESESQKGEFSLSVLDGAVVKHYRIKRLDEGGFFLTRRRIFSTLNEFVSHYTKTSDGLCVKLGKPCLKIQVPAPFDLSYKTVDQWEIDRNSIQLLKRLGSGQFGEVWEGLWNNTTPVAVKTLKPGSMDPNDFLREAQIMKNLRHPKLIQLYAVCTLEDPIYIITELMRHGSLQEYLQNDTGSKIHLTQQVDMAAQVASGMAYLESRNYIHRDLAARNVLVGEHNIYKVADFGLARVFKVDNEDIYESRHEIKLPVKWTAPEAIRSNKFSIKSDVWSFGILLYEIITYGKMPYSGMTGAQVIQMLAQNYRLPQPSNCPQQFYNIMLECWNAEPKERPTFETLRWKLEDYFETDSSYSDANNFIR

[8] = system: CHEK2 (human), O96017 [R145W]
[9] = molecular target: CAMK1 (human) (UniProt Q14012)
[10] = molecular target: EPHA7 (human) (UniProt Q15375)
[11] = molecular target: MARK2 (human) (UniProt Q7KZI7)
[12] = molecular target: TYRO3 (human) (UniProt Q06418)
[13] = molecular target: PAK3 (human) (UniProt O75914)
[14] = molecular target: NLK (human) (UniProt Q9UBE8)
[15] = molecular target: CSNK1G2 (human) (UniProt P78368)
[16] = molecular target: FGFR2 (human) (UniProt P21802)
[17] = molecular target: WNK3 (human) (UniProt Q9BYP7)
[18] = molecular target: HIPK1 (human) (UniProt Q86Z02)
[19] = molecular target: MAP2K1 (human) (UniProt Q02750)
[20] = system: EGFR (human), P00533 [T790M/L858R]
[21] = system: KIT (human), P10721 [V560G]
Chain of KIT (human), P10721 [V560G] (P10721 whole entry V560G, looked up): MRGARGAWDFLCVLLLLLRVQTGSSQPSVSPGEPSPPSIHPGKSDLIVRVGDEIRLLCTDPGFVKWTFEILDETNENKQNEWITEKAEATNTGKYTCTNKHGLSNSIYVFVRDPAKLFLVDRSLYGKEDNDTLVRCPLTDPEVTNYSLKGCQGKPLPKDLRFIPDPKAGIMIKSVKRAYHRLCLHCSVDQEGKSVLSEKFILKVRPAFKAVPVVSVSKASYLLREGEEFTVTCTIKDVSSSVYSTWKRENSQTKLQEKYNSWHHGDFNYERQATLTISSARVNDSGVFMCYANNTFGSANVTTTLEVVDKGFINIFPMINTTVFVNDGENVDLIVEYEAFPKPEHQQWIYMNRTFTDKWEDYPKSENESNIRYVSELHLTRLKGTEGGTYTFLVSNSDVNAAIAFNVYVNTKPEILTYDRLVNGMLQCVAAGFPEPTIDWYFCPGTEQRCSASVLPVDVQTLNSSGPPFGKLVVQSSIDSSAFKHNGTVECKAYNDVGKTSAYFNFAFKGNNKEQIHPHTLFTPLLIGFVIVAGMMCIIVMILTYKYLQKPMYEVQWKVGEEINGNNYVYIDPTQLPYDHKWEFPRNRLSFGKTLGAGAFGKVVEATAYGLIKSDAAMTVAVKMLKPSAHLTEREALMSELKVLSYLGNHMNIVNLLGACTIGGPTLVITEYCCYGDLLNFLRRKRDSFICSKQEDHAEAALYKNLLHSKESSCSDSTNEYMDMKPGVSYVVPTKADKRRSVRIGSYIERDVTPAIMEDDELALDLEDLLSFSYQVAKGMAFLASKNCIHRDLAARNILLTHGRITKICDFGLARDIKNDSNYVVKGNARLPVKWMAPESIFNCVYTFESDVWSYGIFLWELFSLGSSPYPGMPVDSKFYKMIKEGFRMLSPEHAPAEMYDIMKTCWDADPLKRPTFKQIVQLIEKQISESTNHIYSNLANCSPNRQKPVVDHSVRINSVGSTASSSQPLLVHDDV

[22] = molecular target: PRKCH (human) (UniProt P24723)
[23] = molecular target: GCK (human) (UniProt Q12851)
Chain of GCK (human) (Q12851 whole entry, looked up): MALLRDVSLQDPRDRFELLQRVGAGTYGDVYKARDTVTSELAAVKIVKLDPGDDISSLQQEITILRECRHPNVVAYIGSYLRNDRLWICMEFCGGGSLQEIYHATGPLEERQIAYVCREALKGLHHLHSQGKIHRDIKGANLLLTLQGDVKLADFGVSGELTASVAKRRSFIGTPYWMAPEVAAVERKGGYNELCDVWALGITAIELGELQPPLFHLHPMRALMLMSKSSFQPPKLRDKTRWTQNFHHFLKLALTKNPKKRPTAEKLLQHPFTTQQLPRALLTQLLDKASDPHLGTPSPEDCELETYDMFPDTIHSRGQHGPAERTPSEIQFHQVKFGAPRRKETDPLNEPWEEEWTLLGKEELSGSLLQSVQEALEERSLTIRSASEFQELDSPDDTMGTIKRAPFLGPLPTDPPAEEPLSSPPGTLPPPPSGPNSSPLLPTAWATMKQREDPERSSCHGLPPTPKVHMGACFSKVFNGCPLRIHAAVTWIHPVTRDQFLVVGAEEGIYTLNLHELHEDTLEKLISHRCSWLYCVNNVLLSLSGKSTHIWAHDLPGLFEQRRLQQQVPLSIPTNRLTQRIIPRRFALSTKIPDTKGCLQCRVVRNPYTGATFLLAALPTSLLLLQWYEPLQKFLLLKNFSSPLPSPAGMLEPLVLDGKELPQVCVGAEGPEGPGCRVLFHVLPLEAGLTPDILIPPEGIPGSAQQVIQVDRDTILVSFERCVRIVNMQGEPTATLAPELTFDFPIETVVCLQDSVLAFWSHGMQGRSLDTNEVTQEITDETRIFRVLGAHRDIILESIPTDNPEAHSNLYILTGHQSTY

[24] = system: EGFR (human), P00533 [L861Q]
[25] = molecular target: GRK5 (human) (UniProt P34947)
[26] = molecular target: NTRK2 (human) (UniProt Q16620)
[27] = molecular target: LIMK1 (human) (UniProt P53667)
[28] = molecular target: CDK2 CCNE1 (human) (UniProt P24864+P24941)
[29] = molecular target: MKNK2 (human) (UniProt Q9HBH9)
Chain of MKNK2 (human) (Q9HBH9 whole entry, looked up): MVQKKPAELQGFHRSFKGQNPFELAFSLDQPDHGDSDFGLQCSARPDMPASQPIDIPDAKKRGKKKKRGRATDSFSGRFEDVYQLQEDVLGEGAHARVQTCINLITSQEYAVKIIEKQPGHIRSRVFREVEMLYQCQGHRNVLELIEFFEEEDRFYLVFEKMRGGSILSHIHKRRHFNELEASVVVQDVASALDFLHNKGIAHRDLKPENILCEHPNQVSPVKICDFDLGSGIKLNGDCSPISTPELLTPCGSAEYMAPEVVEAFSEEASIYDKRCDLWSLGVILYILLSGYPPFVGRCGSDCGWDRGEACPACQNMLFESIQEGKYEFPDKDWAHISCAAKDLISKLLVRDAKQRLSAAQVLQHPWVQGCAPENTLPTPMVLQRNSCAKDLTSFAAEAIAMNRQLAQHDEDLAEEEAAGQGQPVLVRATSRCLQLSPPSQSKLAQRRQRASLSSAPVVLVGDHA

[30] = molecular target: CAMK2B (human) (UniProt Q13554)
[31] = molecular target: MAPK10 (human) (UniProt P53779)
[32] = molecular target: LCK (human) (UniProt P06239)
[33] = molecular target: EPHA3 (human) (UniProt P29320)
[34] = molecular target: STK17A (human) (UniProt Q9UEE5)
[35] = system: FGFR1 (human), P11362 [V561M]
[36] = molecular target: MERTK (human) (UniProt Q12866)
Chain of MERTK (human) (Q12866 whole entry, looked up): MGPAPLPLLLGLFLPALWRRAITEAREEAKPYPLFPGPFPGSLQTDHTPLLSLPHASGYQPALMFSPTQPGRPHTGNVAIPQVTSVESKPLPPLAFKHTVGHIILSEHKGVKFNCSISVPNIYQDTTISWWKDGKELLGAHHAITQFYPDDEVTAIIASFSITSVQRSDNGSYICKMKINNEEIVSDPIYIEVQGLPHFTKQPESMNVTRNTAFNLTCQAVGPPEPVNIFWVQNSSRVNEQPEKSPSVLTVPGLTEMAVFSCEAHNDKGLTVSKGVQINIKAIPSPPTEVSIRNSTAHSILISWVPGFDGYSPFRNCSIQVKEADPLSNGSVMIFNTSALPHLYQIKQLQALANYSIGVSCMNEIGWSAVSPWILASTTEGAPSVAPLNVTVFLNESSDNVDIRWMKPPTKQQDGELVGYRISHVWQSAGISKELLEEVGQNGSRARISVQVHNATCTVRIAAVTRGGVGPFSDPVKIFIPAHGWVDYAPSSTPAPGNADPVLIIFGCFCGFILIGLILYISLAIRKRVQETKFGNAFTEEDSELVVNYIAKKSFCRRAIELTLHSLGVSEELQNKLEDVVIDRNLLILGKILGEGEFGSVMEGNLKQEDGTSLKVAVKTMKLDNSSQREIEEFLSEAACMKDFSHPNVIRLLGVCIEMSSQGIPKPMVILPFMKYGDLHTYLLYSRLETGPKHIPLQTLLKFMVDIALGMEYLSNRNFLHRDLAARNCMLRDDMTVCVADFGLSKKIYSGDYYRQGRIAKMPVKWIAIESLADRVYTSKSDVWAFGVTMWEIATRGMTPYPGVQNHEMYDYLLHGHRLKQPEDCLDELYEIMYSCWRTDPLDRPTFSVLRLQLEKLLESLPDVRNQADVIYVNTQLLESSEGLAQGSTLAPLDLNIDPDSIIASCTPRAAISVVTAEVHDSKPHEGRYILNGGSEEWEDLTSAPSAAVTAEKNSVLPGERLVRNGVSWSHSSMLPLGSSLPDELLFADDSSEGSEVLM

[37] = molecular target: TBK1 (human) (UniProt Q9UHD2)
[38] = molecular target: PRKCZ (human) (UniProt Q05513)
[39] = molecular target: PRKCD (human) (UniProt Q05655)
Chain of PRKCD (human) (Q05655 whole entry, looked up): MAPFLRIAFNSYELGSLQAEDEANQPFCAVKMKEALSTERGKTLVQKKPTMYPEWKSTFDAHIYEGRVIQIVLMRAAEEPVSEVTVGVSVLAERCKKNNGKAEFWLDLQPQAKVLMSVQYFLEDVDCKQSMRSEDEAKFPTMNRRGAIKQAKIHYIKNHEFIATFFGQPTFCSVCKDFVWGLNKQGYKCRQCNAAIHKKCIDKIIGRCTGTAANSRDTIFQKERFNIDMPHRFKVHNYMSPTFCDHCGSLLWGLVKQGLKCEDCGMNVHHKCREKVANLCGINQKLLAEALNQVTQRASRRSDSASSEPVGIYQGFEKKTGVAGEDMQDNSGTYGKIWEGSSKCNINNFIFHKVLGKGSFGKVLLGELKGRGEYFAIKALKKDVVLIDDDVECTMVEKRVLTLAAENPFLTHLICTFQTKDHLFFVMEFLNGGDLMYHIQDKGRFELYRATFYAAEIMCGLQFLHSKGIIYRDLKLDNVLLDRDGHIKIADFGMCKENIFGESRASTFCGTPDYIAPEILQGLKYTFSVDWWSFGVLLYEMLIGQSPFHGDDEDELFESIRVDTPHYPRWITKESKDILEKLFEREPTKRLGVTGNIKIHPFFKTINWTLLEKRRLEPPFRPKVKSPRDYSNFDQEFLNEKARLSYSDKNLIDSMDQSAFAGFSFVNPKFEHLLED

[40] = molecular target: PRKCQ (human) (UniProt Q04759)
[41] = molecular target: VRK2 (human) (UniProt Q86Y07)
Chain of VRK2 (human) (Q86Y07 whole entry, looked up): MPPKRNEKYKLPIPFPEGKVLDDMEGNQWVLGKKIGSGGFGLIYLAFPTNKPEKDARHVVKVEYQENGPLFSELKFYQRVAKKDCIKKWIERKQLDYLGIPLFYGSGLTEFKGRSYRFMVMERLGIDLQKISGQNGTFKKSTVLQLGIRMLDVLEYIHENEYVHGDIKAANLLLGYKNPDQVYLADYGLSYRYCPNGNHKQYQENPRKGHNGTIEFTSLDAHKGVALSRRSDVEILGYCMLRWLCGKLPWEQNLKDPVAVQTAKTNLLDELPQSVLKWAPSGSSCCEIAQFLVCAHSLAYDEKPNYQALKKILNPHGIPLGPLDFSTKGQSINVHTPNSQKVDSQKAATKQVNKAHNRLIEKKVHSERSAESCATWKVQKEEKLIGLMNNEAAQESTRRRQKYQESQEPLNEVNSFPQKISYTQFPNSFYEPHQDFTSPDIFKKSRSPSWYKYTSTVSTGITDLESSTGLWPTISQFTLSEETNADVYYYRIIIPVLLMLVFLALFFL

residual activity ([1]; compound 10.0 µM): 99% | residual activity ([2]; compound 10.0 µM): 111% | residual activity ([3]; compound 10.0 µM): 105% | residual activity ([4]; compound 10.0 µM): 10% | residual activity ([5]; compound 10.0 µM): 8% | residual activity ([6]; compound 10.0 µM): 77% | residual activity ([7]; compound 10.0 µM): 90% | residual activity ([8]; compound 10.0 µM): 1% | residual activity ([9]; compound 10.0 µM): 9% | residual activity ([10]; compound 10.0 µM): 118% | residual activity ([11]; compound 10.0 µM): 108% | residual activity ([12]; compound 10.0 µM): 19% | residual activity ([13]; compound 10.0 µM): 38% | residual activity ([14]; compound 10.0 µM): 78% | residual activity ([15]; compound 10.0 µM): 39% | residual activity ([16]; compound 10.0 µM): 65% | residual activity ([17]; compound 10.0 µM): 104% | residual activity ([18]; compound 10.0 µM): 78% | residual activity ([19]; compound 10.0 µM): 43% | residual activity ([20]; compound 10.0 µM): 68% | residual activity ([21]; compound 10.0 µM): 18% | residual activity ([22]; compound 10.0 µM): 95% | residual activity ([23]; compound 10.0 µM): 17% | residual activity ([24]; compound 10.0 µM): 72% | residual activity ([25]; compound 10.0 µM): 114% | residual activity ([26]; compound 10.0 µM): 23% | residual activity ([27]; compound 10.0 µM): 38% | residual activity ([28]; compound 10.0 µM): 99% | residual activity ([29]; compound 10.0 µM): 120% | residual activity ([30]; compound 10.0 µM): 6% | residual activity ([31]; compound 10.0 µM): 12% | residual activity ([32]; compound 10.0 µM): 65% | residual activity ([33]; compound 10.0 µM): 86% | residual activity ([34]; compound 10.0 µM): 15% | residual activity ([35]; compound 10.0 µM): 6% | residual activity ([36]; compound 10.0 µM): 3% | residual activity ([37]; compound 10.0 µM): 47% | residual activity ([38]; compound 10.0 µM): 85% | residual activity ([39]; compound 10.0 µM): 134% | residual activity ([40]; compound 10.0 µM): 57% | residual activity ([41]; compound 10.0 µM): 115%
SMILES: COc1ccc(C#Cc2ccc3ncc4ncn(-c5ccc(CCN)cc5)c4c3c2)cc1

residual activity ([36]; compound 10.0 µM): 28%
SMILES: CC(C)(C)c1nc2c3ccc(F)cc3c3c(=O)[nH]ccc3c2[nH]1

residual activity ([1]; compound 1.0 µM): 107% | residual activity ([2]; compound 1.0 µM): 99% | residual activity ([3]; compound 1.0 µM): 112% | residual activity ([4]; compound 1.0 µM): 1% | residual activity ([5]; compound 1.0 µM): 7% | residual activity ([6]; compound 1.0 µM): 116% | residual activity ([7]; compound 1.0 µM): 92% | residual activity ([8]; compound 1.0 µM): 12% | residual activity ([9]; compound 1.0 µM): 63% | residual activity ([10]; compound 1.0 µM): 102% | residual activity ([11]; compound 1.0 µM): 87% | residual activity ([12]; compound 1.0 µM): 94% | residual activity ([13]; compound 1.0 µM): 78% | residual activity ([14]; compound 1.0 µM): 85% | residual activity ([15]; compound 1.0 µM): 101% | residual activity ([16]; compound 1.0 µM): 56% | residual activity ([17]; compound 1.0 µM): 73% | residual activity ([18]; compound 1.0 µM): 109% | residual activity ([19]; compound 1.0 µM): 96% | residual activity ([20]; compound 1.0 µM): 12% | residual activity ([21]; compound 1.0 µM): 9% | residual activity ([22]; compound 1.0 µM): 109% | residual activity ([23]; compound 1.0 µM): 44% | residual activity ([24]; compound 1.0 µM): 68% | residual activity ([25]; compound 1.0 µM): 122% | residual activity ([26]; compound 1.0 µM): 59% | residual activity ([27]; compound 1.0 µM): 67% | residual activity ([28]; compound 1.0 µM): 116% | residual activity ([29]; compound 1.0 µM): 30% | residual activity ([30]; compound 1.0 µM): 78% | residual activity ([31]; compound 1.0 µM): 71% | residual activity ([32]; compound 1.0 µM): 58% | residual activity ([33]; compound 1.0 µM): 111% | residual activity ([34]; compound 1.0 µM): 62% | residual activity ([35]; compound 1.0 µM): 73% | residual activity ([36]; compound 1.0 µM): 8% | residual activity ([37]; compound 1.0 µM): 78% | residual activity ([38]; compound 1.0 µM): 108% | residual activity ([39]; compound 1.0 µM): 79% | residual activity ([40]; compound 1.0 µM): 78% | residual activity ([41]; compound 1.0 µM): 111%
SMILES: C[C@@H](Nc1nc2c(C#CC3CC3)c[nH]c(=O)c2c2cc(-c3cn[nH]c3)ccc12)C(C)(C)C
